# Assay results taken from patent US9415047B2, “Use of benzo five-membered nitrogen heterocyclic piperazine or piperidine derivatives” (Liaoning Emmy Biological Pharmaceutical Co., Ltd., priority 2012, dated 2016).
# “And” between values parts separate entries of the source, which are not always exact repeats. Identical values can stand only once. “Also recorded” adds a separate entry of the source.
# Tests used:
# [1] = Experiment on acute toxicity; details: both sexes, Kunming, mouse, in vivo, mice
# Excerpt: (§1) Kunming mice (Experimental Animal Center, China Medical University) were used, half male and half female, 18-22 g, brief probability unit method was used to test the acute toxicity of the compound.
# (§2) Ten Kunming mice (Experimental Animal Center, China Medical University) were used, half male and half female, 18-22 g, brief probability unit method was used to test the acute toxicity of the compound.
# [2] = tested on: AD constricted rabbit aorta; assay: Relaxing effects on vascular smooth muscle constricted by adrenaline hydrochloride (AD) in vitro; details: Oryctolagus cuniculus; relaxation of rabbit aorta constricted by adrenaline (10^−5 mol/L); mean±SEM, n=5
# Procedure, shortened: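 Rabbit aortic strips in K-H solution precontracted with adrenaline hydrochloride (10^−5 mol/L) after a reproducible second contraction; compounds added cumulatively over ranges from 1×10^−10 up to 1×10^−2 mol/L depending on the compound series. Relaxation expressed as % of maximal relaxation versus −log concentration, mean±SEM, n=5.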
# Kunming mice [3] = assay: Marrow micronucleus test on mice; format: in vivo; details: for micronuclei cells in 1000 polychromatic erythrocytes: dosed 4 days, test on day 5, II-2 120, II-85 74, cyclophosphane 60 mg/kg/day
# Method: Ten Kunming mice (Experimental Animal Center, China Medical University), half male and half female, were used. Compound II-2 was administered via gastric gavage at 120 mg/kg/day, and II-85 was administered to 74 mg/kg/day. The drug was administered for 4 days continuously. Marrow micronucleus test was performed on day 5.
# Mice in positive control group were administered cyclophosphane at 60 mg/kg/day. Mice in negative control group were administered normal saline at 0.1 ml/10 g/day. The drug was administered for 4 days continuously. Marrow micronucleus test was performed on day 5.
# The mice were killed by snapping neck, and then femur and sternum were excised, with blood and muscles removed, epiphysis cut off. Then marrow from sternum was squeezed to clean glassslide with bovine serum by using a pair of hemostatic forceps, or marrow on femur was flushed directly with bovine serum onto clean glassslide. Then the substance on glassslide were mixed well and smeared. Then the prepared and dried marrow smears were put into staining tank with methanol, fixed for 15 min, picked out to dry in the open air. After marrow smears were dried, it would be stained in freshly prepared Giemsa solution (1 volume of Giemsa stock solution and 9 volumes of pH 6.8 phosphate buffer) for 10 min, staining solution was flushed away with little stream. Then the smear was dried in the open air and observed under a microscope.
# α1 receptor [4] = assay: Antagonism of accumulative constriction of rabbit aorta by phenylephrine (α-receptor agonist); details: agonist (R)-phenylephrine
# Method: PE was also added by using the same method 15 min later. […] The curve was shown in FIG. 21 after positive drug doxazosine mesylate (10^−7 mol/L) was added.
# Calcium Channel (Ca^2+) = assay: Antagonism of accumulative constriction of rabbit aorta by CaCl2; details: calcium free high kalium depolarization
# Method: (§3) Rabbits were hit to be dizzy, with thoracic cavity quickly cut open, descending aorta exposed, connective tissues and surrounding fatty tissues (for hydroxytryptamine receptor antagonism test, endothelia should be removed with smooth stainless steel rod) removed, the aorta was cut into 3-5 mm vascular rings which were penetrated together with a steel wire with one end fixed on ventilation hook, another end on pressure tonotransducer. The aorta rings were put into a bath tube with 20 ml of nutritional solution, and the tension changes were recorded by using the recorder. The temperature of bath tube was maintained at 37±0.5° C., and mixed gas (95% O2+5% CO2) was ventilated at a rate of I-2 bubbles/second. The initial load of the sample was 1.5 g, nutritional solution was changed for every 20 min. The sample was balanced for 2 hours, and the experiment would be started when baseline became stable.
# After sample tension became stable, calcium K-H solution was used to flush the sample for 3 times, and incubated with calcium free K-H solution for 40 min. Calcium free high kalium solution was added into the sample for depolarization for 20 min, then CaCl2 (10^−6-10^−2 mol/L) was added into bath tube till maximal response was achieved, and then waveform was recorded. Then K-H solution was used to flush the sample repeatedly, the K-H solution was changed for every 20 min, and the sample was balanced for 60 min. […]
# After sample tension became stable, calcium K-H solution was used to flush the sample for 3 times, and incubated with calcium free K-H solution for 40 min. Calcium free high kalium solution was added into the sample for depolarization for 20 min, then CaCl2 (10^−6-10^−2 mol/L) was added into bath tube till maximal response was achieved, and then waveform was recorded. […] Calcium free high kalium solution was added into the sample for depolarization for 20 min, then amlodipine (10^−7 mol/L) was added into bath tube, which was incubated for 15 min, then CaCl2 (10^−6-10^−2 mol/L) was added by using the same method till maximal response was achieved, and then waveform was recorded. […]
# [5] = tested on: NA constricted rabbit aorta; assay: Relaxing effects on vascular smooth muscle constricted by noradrenaline (NA) in vitro; details: Oryctolagus cuniculus; relaxation of rabbit aorta constricted by noradrenaline (10^−5 mol/L); mean±SEM, n=5
# Procedure, shortened: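 Rabbit aortic rings in K-H solution, pre-tested with adrenaline (10^−5 mol/L), washed and re-equilibrated 60 min, then constricted with noradrenaline (10^−5 mol/L). Compounds added cumulatively from 1×10^−10 up to 1×10^−2 or 1×10^−3 mol/L; relaxation expressed as % of maximal relaxation versus −log concentration (mean±SEM, n=5).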
# SD rats = assay: Effects on blood pressure of SD rats anesthetized with urethane; format: in vivo; details: for time until blood pressures recovered to those before drug dosing: anesthetized SD rats; for time until blood pressures recovered to those before drug dosing / hypotensive effects: gastric gavage; for oral absorption: in vivo bulk testing on rats; for hypotensive effects: rats
# Method: Four SD rats were anesthetized with urethane ([…]), after vital signs became stable, blood pressure was measured by common carotid intubation. After blood pressure became stable, compound II-2 was administered at 4.0 mg/kg via gastric gavage, blood pressure changes with time were observed and recorded.
# Five SD rats (provided by Experimental Animal Center, China Medical University) were anesthetized with urethane ([…]), after vital signs became stable, blood pressure was measured by common carotid intubation. After blood pressure became stable, compound II-85 was administered at 1.5 mg/kg via gastric gavage, blood pressure changes with time were observed and recorded.
# 5-HT2A receptor = 5-HT2A receptor (Oryctolagus cuniculus, UniProt G1SYA7); assay: Antagonism of accumulative constriction of rabbit aorta by 5-HT
# 5-HT2A receptor, sequence (G1SYA7 1-469): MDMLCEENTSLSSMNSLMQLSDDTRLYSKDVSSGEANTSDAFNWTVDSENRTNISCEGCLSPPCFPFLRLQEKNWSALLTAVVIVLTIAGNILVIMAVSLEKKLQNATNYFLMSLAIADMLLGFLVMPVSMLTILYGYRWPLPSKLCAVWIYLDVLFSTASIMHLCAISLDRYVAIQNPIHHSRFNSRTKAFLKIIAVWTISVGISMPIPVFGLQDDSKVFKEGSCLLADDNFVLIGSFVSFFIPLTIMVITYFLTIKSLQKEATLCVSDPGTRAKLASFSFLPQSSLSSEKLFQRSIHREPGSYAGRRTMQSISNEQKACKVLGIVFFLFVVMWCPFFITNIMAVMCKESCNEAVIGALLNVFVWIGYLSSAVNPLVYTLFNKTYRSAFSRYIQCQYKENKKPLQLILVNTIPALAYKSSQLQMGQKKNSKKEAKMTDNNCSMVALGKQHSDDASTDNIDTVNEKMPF
# Method: as §3
# After sample tension became stable, a piece of waveform was recorded, 5-HT (10^−7-3×10^−4 mol/L) was added into the bath tube until maximal response, then waveform was recorded. […] 5-HT was also added by using the same method 20 min later. The maximal response was considered 100%, 5-HT constriction percentage was used as Y axis, negative logarithms of different concentrations of 5-HT were used as X axis to draw dose effective curve.
# After sample tension became stable, a piece of waveform was recorded, 5-HT (10^−8-10^−3 mol/L) was added into the bath tube until maximal response, then waveform was recorded. […] 5-HT was also added by using the same method 20 min later. The maximal response was considered 100%, 5-HT constriction percentage was used as Y axis, negative logarithms of different concentrations of 5-HT were used as X axis to draw dose effective curve (data were expressed in mean±SEM ( ? ), *P<0.05, **P<0.01, n=7).
# After sample tension became stable, a piece of waveform was recorded, 5-HT (10^−8-3×10^−4 mol/L) was added into the bath tube until maximal response, then waveform was recorded. […] 5-HT was also added by using the same method 20 min later. […]
# α1 receptor [6] = assay: Antagonism of accumulative constriction of rabbit aorta by noradrenaline (α-receptor agonist)
# Method: Then samples were flushed with K-H solution repeatedly, K-H solution was changed for every 20 min, and the samples were balanced for 60 min. After baseline recovered to be stable, doxazosin (10^−7 mol/L) was added, and noradrenaline (NA) (10^−8-6×10^−5 mol/L) was added by using the same method 15 min later.
# NA was also added by using the same method 15 min later.
# Kunming mice [7] = assay: Experiment on acute toxicity; details: mouse, in vivo
# Excerpt: as §1, §2
# [8] = tested on: high kalium concentration constricted rabbit aorta; assay: Relaxing effects on vascular smooth muscle constricted by high kalium concentration in vitro; details: Oryctolagus cuniculus, relaxation of rabbit aorta constricted by high kalium solution (K+ 60 mmol/L); mean±SEM, n=5
# Procedure, shortened: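 Rabbit aortic rings pre-challenged with adrenaline (10^−5 mol/L), washed and re-equilibrated 60 min in K-H solution, then constricted with high-K+ solution; compounds added cumulatively over 1×10^−10–1×10^−2 mol/L depending on series. Relaxation expressed as % of maximal relaxation vs −log concentration; mean±SEM, n=5.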
# [9] = 1.5 mg/kg gastric gavage, 0 min post dosing, n = 5
# [10] = 1.5 mg/kg gastric gavage, 15 min post dosing, n = 5
# [11] = 1.5 mg/kg gastric gavage, 30 min post dosing, n = 5
# [12] = 1.5 mg/kg gastric gavage, 60 min post dosing, n = 5
# [13] = 1.5 mg/kg gastric gavage, 90 min post dosing, n = 5
# [14] = 1.5 mg/kg gastric gavage, 120 min post dosing, n = 5
# [15] = 1.5 mg/kg gastric gavage, 150 min post dosing, n = 5
# [16] = 1.5 mg/kg gastric gavage, 180 min post dosing, n = 5
# [17] = 1.5 mg/kg gastric gavage, 210 min post dosing, n = 5
# [18] = 1.5 mg/kg gastric gavage, 240 min post dosing, n = 5
# [19] = 4.0 mg/kg gastric gavage, 0 min post dosing, n = 4
# [20] = 4.0 mg/kg gastric gavage, 15 min post dosing, n = 4
# [21] = 4.0 mg/kg gastric gavage, 30 min post dosing, n = 4
# [22] = 4.0 mg/kg gastric gavage, 60 min post dosing, n = 4
# [23] = 4.0 mg/kg gastric gavage, 90 min post dosing, n = 4
# [24] = 4.0 mg/kg gastric gavage, 120 min post dosing, n = 4
# [25] = 4.0 mg/kg gastric gavage, 150 min post dosing, n = 4
# [26] = 4.0 mg/kg gastric gavage, 180 min post dosing, n = 4
# [27] = 4.0 mg/kg gastric gavage, 210 min post dosing, n = 4
smiles,measurement,setting,value
"Fc1ccc2c(C3CCN(CCCn4nnc5ccccc54)CC3)noc2c1 [II-85, N-(3-(1H-benzotriazole-1-yl)propyl)4-(3-(6-fluorobenzisoxazolyl))piperidine]",LD50,"[1]; intraperitoneal, intraabdominal injection",108 mg/kg
same,LD50,"[1]; po, gastric gavage",222 mg/kg
same,EC50,[2],50.1 nM
same,marrow micronucleus test result,Kunming mice [3],negative
same,micronuclei cells in 1000 polychromatic erythrocytes,Kunming mice [3],2.5±0.373%
same,PA2 value to resist constriction of rabbit aorta by PE,α1 receptor [4],8.62±0.11
same,PA2 value to resist constriction of rabbit aorta by CaCl2,Calcium Channel (Ca^2+),6.10±0.13
same,EC50,[5],30.9 nM
same,diastolic blood pressure (DBP),SD rats; [9],103.06 mmHg
same,mean artery pressure (MAP),SD rats; [9],116.63 mmHg
same,systolic blood pressure (SBP),SD rats; [9],143.77 mmHg
same,diastolic blood pressure (DBP),SD rats; [10],75.36 mmHg
same,mean artery pressure (MAP),SD rats; [10],91.98 mmHg
same,systolic blood pressure (SBP),SD rats; [10],125.22 mmHg
same,diastolic blood pressure (DBP),SD rats; [11],68.68 mmHg
same,mean artery pressure (MAP),SD rats; [11],84.42 mmHg
same,systolic blood pressure (SBP),SD rats; [11],115.90 mmHg
same,diastolic blood pressure (DBP),SD rats; [12],75.49 mmHg
same,mean artery pressure (MAP),SD rats; [12],91.24 mmHg
same,systolic blood pressure (SBP),SD rats; [12],122.75 mmHg
same,diastolic blood pressure (DBP),SD rats; [13],83.32 mmHg
same,mean artery pressure (MAP),SD rats; [13],97.37 mmHg
same,systolic blood pressure (SBP),SD rats; [13],125.48 mmHg
same,diastolic blood pressure (DBP),SD rats; [14],83.71 mmHg
same,mean artery pressure (MAP),SD rats; [14],96.77 mmHg
same,systolic blood pressure (SBP),SD rats; [14],122.89 mmHg
same,diastolic blood pressure (DBP),SD rats; [15],95.06 mmHg
same,mean artery pressure (MAP),SD rats; [15],108.73 mmHg
same,systolic blood pressure (SBP),SD rats; [15],136.08 mmHg
same,diastolic blood pressure (DBP),SD rats; [16],86.22 mmHg
same,mean artery pressure (MAP),SD rats; [16],100.11 mmHg
same,systolic blood pressure (SBP),SD rats; [16],127.90 mmHg
same,diastolic blood pressure (DBP),SD rats; [17],97.96 mmHg
same,mean artery pressure (MAP),SD rats; [17],111.02 mmHg
same,systolic blood pressure (SBP),SD rats; [17],137.13 mmHg
same,diastolic blood pressure (DBP),SD rats; [18],102.84 mmHg
same,mean artery pressure (MAP),SD rats; [18],115.95 mmHg
same,systolic blood pressure (SBP),SD rats; [18],142.19 mmHg
same,time until blood pressures recovered to those before drug dosing,SD rats,6 h
same,oral absorption,SD rats,good oral absorption
same,hypotensive effects,SD rats,obvious hypotensive effects; also recorded: good hypotensive effects
same,Kb,5-HT2A receptor,0.871 nM
"COc1cc2nc(N3CCN(C(=O)C4COc5ccccc5O4)CC3)nc(N)c2cc1OC (stereo not drawn) [doxazosin, reference compound]",PA2 value to resist constriction of rabbit aorta by PE,α1 receptor [4],7.43±0.12
same,PA2 value to resist constriction of rabbit aorta by NA,α1 receptor [6],7.52±0.04 and 7.76±0.24
"FC(F)(F)c1cccc(N2CCN(CCCCn3cnc4ccccc43)CC2)c1 [II-2, 1-(4-(4-(3-trifluoromethylphenyl)piperazine-1-yl)butyl)-1H-benzimidazole]",LD50,"[1]; po, gastric gavage",362 mg/kg
same,therapeutic index,Kunming mice [7],great therapeutic index
same,toxicity,Kunming mice [7],mild toxicity
same,EC50,[2],1860 nM
same,marrow micronucleus test result,Kunming mice [3],negative
same,micronuclei cells in 1000 polychromatic erythrocytes,Kunming mice [3],2.0±0.333%
same,EC50,[8],4.57 µM
same,PA2 value to resist constriction of rabbit aorta by CaCl2,Calcium Channel (Ca^2+),5.61±0.04
same,diastolic blood pressure (DBP),SD rats; [19],75.92 mmHg
same,mean artery pressure (MAP),SD rats; [19],91.50 mmHg
same,systolic blood pressure (SBP),SD rats; [19],122.66 mmHg
same,diastolic blood pressure (DBP),SD rats; [20],62.21 mmHg
same,mean artery pressure (MAP),SD rats; [20],73.40 mmHg
same,systolic blood pressure (SBP),SD rats; [20],95.77 mmHg
same,diastolic blood pressure (DBP),SD rats; [21],61.84 mmHg
same,mean artery pressure (MAP),SD rats; [21],74.52 mmHg
same,systolic blood pressure (SBP),SD rats; [21],99.88 mmHg
same,diastolic blood pressure (DBP),SD rats; [22],58.04 mmHg
same,mean artery pressure (MAP),SD rats; [22],72.77 mmHg
same,systolic blood pressure (SBP),SD rats; [22],102.22 mmHg
same,diastolic blood pressure (DBP),SD rats; [23],53.86 mmHg
same,mean artery pressure (MAP),SD rats; [23],68.81 mmHg
same,systolic blood pressure (SBP),SD rats; [23],98.71 mmHg
same,diastolic blood pressure (DBP),SD rats; [24],69.10 mmHg
same,mean artery pressure (MAP),SD rats; [24],83.12 mmHg
same,systolic blood pressure (SBP),SD rats; [24],111.16 mmHg
same,diastolic blood pressure (DBP),SD rats; [25],70.79 mmHg
same,mean artery pressure (MAP),SD rats; [25],84.47 mmHg
same,systolic blood pressure (SBP),SD rats; [25],111.82 mmHg
same,diastolic blood pressure (DBP),SD rats; [26],71.08 mmHg
same,mean artery pressure (MAP),SD rats; [26],84.83 mmHg
same,systolic blood pressure (SBP),SD rats; [26],112.34 mmHg
same,diastolic blood pressure (DBP),SD rats; [27],75.26 mmHg
same,mean artery pressure (MAP),SD rats; [27],88.54 mmHg
same,systolic blood pressure (SBP),SD rats; [27],115.12 mmHg
same,time until blood pressures recovered to those before drug dosing,SD rats,3.5 h
same,oral absorption,SD rats,good oral absorption
same,hypotensive effects,SD rats,good hypotensive effects; also recorded: obvious hypotensive effects
same,Kb,5-HT2A receptor,1950 nM
same,PA2 value to resist constriction of rabbit aorta by NA,α1 receptor [6],7.37±0.08
